Among the data in DBAASP are MIC values, retold here.

Each structure is given as a SMILES string. In brackets after ≈: the same amount, converted by molar mass. Several values for one entry are separate records, joined by “and”; a condition that tells them apart may be missing. Identical values can stand only once.

Test systems include Escherichia coli MG1655; Bacillus subtilis 168 HT; Bacillus subtilis; Escherichia coli BL21AI; Escherichia coli.
What all share (experiment): ≥ marks a high value that may be exact or a test limit, other limits are often not marked, values filed in µg/mL are converted to µM
The test system of assay [1] is Staphylococcus aureus ATCC 25923.
Assay [2] relates to Escherichia coli ATCC 25922.
Assay [3] has as its system Enterococcus faecalis PCM 2673.
Assay [4] relates to Candida albicans ATCC 10231.
In assay [5] the test system is Pseudomonas aeruginosa ATCC 9027.
In assay [6] the test system is Bacillus subtilis ATCC 6633.
Assay [7] has as its system Pseudomonas aeruginosa ATCC BAA-427.
Assay [8] deals with Klebsiella pneumoniae ATCC 27736.
Assay [9] relates to Staphylococcus aureus ATCC BAA-1556.
The test system of assay [10] is Streptococcus pyogenes ATCC 19615.
The subject of assay [11] is Salmonella enterica subsp. enterica serovar Typhimurium ATCC 14028.
Assay [12] deals with Klebsiella pneumoniae ATCC 13883.
Assay [13] has as its system Pseudomonas aeruginosa ATCC 27853.
Assay [14] concerns Escherichia coli BL21(DE3).
Assay [15] deals with Enterococcus faecalis ATCC 29212.
For assay [16], the system named is Micrococcus luteus ATCC 10240.

For `CC[C@H](C)[C@H](NC(=O)[C@H](CCCCN)NC(=O)[C@H](CCCCN)NC(=O)[C@H](C)NC(=O)[C@@H](NC(=O)[C@H](CC(=O)O)NC(=O)[C@H](Cc1ccccc1)NC(=O)[C@H](CC(C)C)NC(=O)CN)[C@@H](C)CC)C(=O)N[C@@H](C)C(=O)N[C@@H](CCC(=O)O)C(=O)N[C@@H](CO)C(=O)N[C@@H](Cc1ccccc1)C(N)=O` [GLFDIAKKIAESF], the MIC is above 356 µM in [1]; 356 µM (≈ 512 µg/mL) in [2]; at least 178 µM in assay [3]; 178 µM (≈ 256 µg/mL) in [4]; above 356 µM in assay [5].
On to `CC[C@H](C)[C@H](NC(=O)[C@H](CCCCN)NC(=O)[C@@H](N)Cc1c[nH]c2ccccc12)C(=O)N[C@@H](Cc1ccccc1)C(=O)N[C@@H](CCCCN)C(=O)N[C@@H](CC(C)C)C(=O)N[C@@H](CCCCN)C(=O)N[C@@H](CC(C)C)C(=O)N[C@@H](CCCN=C(N)N)C(=O)N[C@@H](CCSC)C(=O)N[C@@H](CC(C)C)C(=O)N[C@@H](Cc1c[nH]c2ccccc12)C(=O)O` [WKIFKLKLRMLW], for which the values for the MIC against Escherichia coli MG1655 and against Bacillus subtilis 168 HT were at least 77 µM and at least 38.5 µM, respectively.
As for `CC[C@H](C)[C@H](NC(=O)CNC(=O)[C@H](CCCN=C(N)N)NC(=O)[C@H](Cc1ccccc1)NC(=O)[C@H](C)NC(=O)[C@H](Cc1cnc[nH]1)NC(=O)[C@H](Cc1cnc[nH]1)NC(=O)[C@H](Cc1ccccc1)NC(=O)[C@@H](N)Cc1ccccc1)C(=O)N[C@H](C(=O)N[C@@H](Cc1cnc[nH]1)C(=O)N[C@H](C(=O)NCC(=O)N[C@@H](CCCCN)C(=O)N[C@H](C(=O)N[C@H](C(=O)N[C@@H](Cc1cnc[nH]1)C(=O)N[C@@H](CCCN=C(N)N)C(=O)N[C@@H](CC(C)C)C(=O)N[C@H](C(=O)N[C@H](C(=O)NCC(N)=O)[C@@H](C)O)C(C)C)[C@@H](C)CC)[C@@H](C)O)C(C)C)C(C)C` [FFHHAFRGIVHVGKTIHRLVTG], the MIC in [6] stood at 16 µM (≈ 40.5 µg/mL); in assay [7] it was 20 µM (≈ 50.6 µg/mL); in assay [8] it was 12 µM (≈ 30.3 µg/mL).
Consider `CC[C@H](C)[C@H](NC(=O)[C@H](CCCN=C(N)N)NC(=O)[C@H](CCSC)NC(=O)[C@@H](NC(=O)[C@H](CCCN=C(N)N)NC(=O)[C@@H](N)Cc1ccccc1)[C@@H](C)CC)C(=O)N[C@@H](CC(C)C)C(=O)N[C@@H](CCCN=C(N)N)C(=O)N[C@H](C(=O)N[C@@H](CC(C)C)C(=O)N[C@@H](CCCCN)C(=O)N[C@@H](CC(C)C)C(=O)O)C(C)C` [FRIMRILRVLKL], for which the MIC in the assay with Escherichia coli MG1655 and in the assay on Bacillus subtilis 168 HT was 10.3 µM (≈ 16 µg/mL) throughout.
Consider `CC[C@H](C)[C@H](NC(=O)[C@H](CCCCN)NC(=O)[C@H](CCCCN)NC(=O)[C@@H](NC(=O)[C@@H](NC(=O)[C@H](CC(=O)O)NC(=O)[C@H](Cc1ccccc1)NC(=O)[C@H](CC(C)C)NC(=O)CN)[C@@H](C)CC)[C@@H](C)CC)C(=O)N[C@@H](C)C(=O)N[C@@H](CCC(=O)O)C(=O)N[C@@H](CO)C(=O)N[C@@H](C)C(N)=O` [GLFDIIKKIAESA], for which the MIC in assay [1] is above 365 µM; in assay [2] it was 91.1 µM (≈ 128 µg/mL); in assay [3], at least 91.1 µM; in assay [4], 365 µM (≈ 512 µg/mL); in assay [5] it was above 365 µM.
`CC[C@H](C)[C@H](NC(=O)[C@H](Cc1c[nH]c2ccccc12)NC(=O)[C@H](CCCN=C(N)N)NC(=O)[C@H](CCCN=C(N)N)NC(=O)[C@H](Cc1c[nH]c2ccccc12)NC(=O)[C@@H](N)CCCCN)C(=O)N[C@@H](CC(C)C)C(=O)N[C@@H](Cc1c[nH]c2ccccc12)C(=O)N[C@@H](CC(C)C)C(N)=O` [KWRRWILWL]: the MIC in assay [9] worked out at 12.5 µM (≈ 16.9 µg/mL).
On to `CC[C@H](C)[C@H](NC(=O)[C@H](CC(C)C)NC(=O)[C@H](Cc1c[nH]c2ccccc12)NC(=O)[C@@H](NC(=O)[C@H](CC(C)C)NC(=O)[C@H](CCCN=C(N)N)NC(=O)[C@@H](N)CCCN=C(N)N)[C@@H](C)CC)C(=O)N[C@@H](CC(C)C)C(=O)N[C@@H](CCCN=C(N)N)C(=O)N[C@@H](CC(C)C)C(=O)N[C@@H](CC(C)C)C(=O)N[C@@H](CCCN=C(N)N)C(N)=O` [RRLIWLILRLLR], for which the MIC was 4 µM and 8 µM in [10]; 10 µM and 4 µM and 8 µM in the assay on Bacillus subtilis; 8 µM and > 4 µM and 10 µM in assay [11]; 4 µM and 8 µM in assay [12]; 8 µM and > 4 µM and 10 µM in [13]; 8 µM (≈ 13 µg/mL) in assay [14]. The MIC in assay [15] is 4 µM and 8 µM.
Turning to `CC[C@H](C)[C@H](NC(=O)[C@@H]1CCCN1C(=O)[C@H](CCCN=C(N)N)NC(=O)[C@@H]1CCCN1C(=O)[C@H](Cc1cnc[nH]1)NC(=O)[C@@H]1CCCN1C(=O)[C@@H]1CCCN1C(=O)[C@H](CCCN=C(N)N)NC(=O)[C@@H]1CCCN1C(=O)[C@H](CCC(N)=O)NC(=O)[C@@H]1CCCN1C(=O)[C@@H](NC(=O)[C@H](Cc1ccc(O)cc1)NC(=O)[C@@H](NC(=O)[C@@H]1CCCN1C(=O)[C@H](CCCN=C(N)N)NC(=O)[C@H](CC(N)=O)NC(=O)[C@H](CC(N)=O)NC(=O)CN)C(C)C)[C@@H](C)CC)C(=O)N[C@@H](CCCN=C(N)N)C(=O)N[C@H](C(=O)O)C(C)C` [GNNRPVYIPQPRPPHPRPIRV], the values for the minimum inhibitory concentration (MIC) (in [16]; against Escherichia coli BL21AI) were 0.199 µM (≈ 0.49 µg/mL) and 6.35 µM (≈ 15.6 µg/mL), respectively.
In [9], `CC[C@H](C)[C@H](NC(=O)[C@H](Cc1c[nH]c2ccccc12)NC(=O)[C@H](CCCN=C(N)N)NC(=O)[C@H](CCCN=C(N)N)NC(=O)[C@H](Cc1c[nH]c2ccccc12)NC(=O)[C@@H](N)CC(C)C)C(=O)N[C@@H](CCCN=C(N)N)C(=O)N[C@@H](Cc1c[nH]c2ccccc12)C(=O)N[C@@H](CC(C)C)C(N)=O` [LWRRWIRWL] displayed an MIC of 12.5 µM (≈ 17.3 µg/mL).
`CC[C@H](C)[C@H](NC(=O)[C@H](CCCN=C(N)N)NC(=O)[C@H](CCCN=C(N)N)NC(=O)[C@@H]1CCCN1C(=O)[C@@H]1CCCN1C(=O)[C@H](CCCCN)NC(=O)[C@@H]1CCCN1C(=O)[C@H](CCCN=C(N)N)NC(=O)[C@@H]1CCCN1C(=O)[C@H](CC(C)C)NC(=O)[C@H](Cc1ccc(O)cc1)NC(=O)[C@@H]1CCCN1C(=O)[C@@H]1CCCN1C(=O)[C@H](CCCCN)NC(=O)[C@H](CC(=O)O)NC(=O)[C@@H](N)C(C)C)C(=O)N[C@@H](Cc1ccc(O)cc1)C(=O)N[C@@H](CC(N)=O)C(=O)N[C@@H](CC(N)=O)C(=O)N[C@@H](CCCN=C(N)N)C(=O)O` [VDKPPYLPRPKPPRRIYNNR]: the MIC (in assay [16]; against Escherichia coli BL21AI) was 6.46 µM (≈ 16 µg/mL) throughout.
In the case of `CC(C)C[C@H](NC(=O)[C@H](CCCN=C(N)N)NC(=O)CNC(=O)CNC(=O)[C@@H](N)CCCN=C(N)N)C(=O)N[C@@H](Cc1ccc(O)cc1)C(=O)N[C@@H](CCCN=C(N)N)C(=O)N[C@@H](CCCN=C(N)N)C(=O)N[C@@H](CCCN=C(N)N)C(=O)N[C@@H](Cc1ccccc1)C(=O)N[C@H](C(=O)N[C@H](C(=O)NCC(=O)N[C@@H](CCCN=C(N)N)C(N)=O)C(C)C)C(C)C` [RGGRLYRRRFVVGR], the MIC stood at 2 µM (≈ 3.49 µg/mL) in assay [1]; 4 µM (≈ 6.99 µg/mL) with Escherichia coli; 8 µM (≈ 14 µg/mL) in assay [10]; 8 µM (≈ 14 µg/mL) against Bacillus subtilis; 8 µM (≈ 14 µg/mL) in [11]; 8 µM (≈ 14 µg/mL) in [12]. The MIC in assay [13] came to 8 µM (≈ 14 µg/mL); in assay [15], 4 µM (≈ 6.99 µg/mL).
With `CC[C@H](C)[C@H](NC(=O)[C@H](Cc1cnc[nH]1)NC(=O)[C@H](Cc1cnc[nH]1)NC(=O)[C@H](Cc1ccccc1)NC(=O)[C@@H](N)Cc1ccccc1)C(=O)N[C@@H](Cc1ccccc1)C(=O)N[C@@H](CCCN=C(N)N)C(=O)NCC(=O)N[C@H](C(=O)N[C@H](C(=O)N[C@@H](Cc1cnc[nH]1)C(=O)N[C@H](C(=O)NCC(=O)N[C@@H](CCCCN)C(=O)N[C@H](C(=O)N[C@H](C(=O)N[C@@H](Cc1cnc[nH]1)C(=O)N[C@@H](CCCN=C(N)N)C(=O)N[C@@H](CC(C)C)C(=O)N[C@H](C(=O)N[C@H](C(=O)NCC(N)=O)[C@@H](C)O)C(C)C)[C@@H](C)CC)[C@@H](C)O)C(C)C)C(C)C)C(C)C` [FFHHIFRGVVHVGKTIHRLVTG], the MIC in assay [6] was 8 µM (≈ 20.5 µg/mL); in assay [7], 12 µM (≈ 30.7 µg/mL); in assay [8] it was 6 µM (≈ 15.3 µg/mL).
In assay [9], `CC[C@H](C)[C@H](NC(=O)[C@H](Cc1c[nH]c2ccccc12)NC(=O)[C@H](CCCN=C(N)N)NC(=O)[C@H](CCCN=C(N)N)NC(=O)[C@H](Cc1c[nH]c2ccccc12)NC(=O)[C@@H](N)CCCCN)C(=O)N[C@@H](CCCN=C(N)N)C(=O)N[C@@H](C)C(=O)N[C@@H](CC(C)C)C(N)=O` [KWRRWIRAL] displayed an MIC of 25 µM (≈ 32.1 µg/mL).
